Measurements taken from PubChem BioAssay AID2060886 (Molecular Pharmacology Branch, DTP, NCI, 2025).

Tested on: 653999-131-R-J2-PDC complex spheroids, growth inhibition
Experiment: Anticancer human tumor 653999-131-R-J2-PDC patient-derived lung adenocarcinoma cell line growth inhibition [RAS]
Settings: for viability, T/C: stronger effect = lower value
In short: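 Agents were tested in combination matrices in half-log decrements from a top concentration at or near clinical Cmax (10 microM if undetermined). Targets were multi-cell spheroids of tumour lines plus HUVEC and MSC stromal cells.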

[1] = curve of first compound, second compound 0.00316 µM
[2] = curve of first compound, second compound 0.01 µM
[3] = curve of first compound, second compound 0.0316 µM
[4] = curve of first compound, second compound 0.1 µM
[5] = curve of first compound, second compound 0.316 µM
[6] = curve of first compound, second compound 1 µM
[7] = second compound 0.00316 µM, first compound 0.0316 µM
[8] = second compound 0.00316 µM, first compound 0.1 µM
[9] = second compound 0.00316 µM, first compound 0.316 µM
[10] = second compound 0.00316 µM, first compound 1 µM
[11] = second compound 0.01 µM, first compound 0.0316 µM
[12] = second compound 0.01 µM, first compound 0.1 µM
[13] = second compound 0.01 µM, first compound 0.316 µM
[14] = second compound 0.01 µM, first compound 1 µM
[15] = second compound 0.0316 µM, first compound 0.0316 µM
[16] = second compound 0.0316 µM, first compound 0.1 µM
[17] = second compound 0.0316 µM, first compound 0.316 µM
[18] = second compound 0.0316 µM, first compound 1 µM
[19] = second compound 0.1 µM, first compound 0.0316 µM
[20] = second compound 0.1 µM, first compound 0.1 µM
[21] = second compound 0.1 µM, first compound 0.316 µM
[22] = second compound 0.1 µM, first compound 1 µM
[23] = second compound 0.316 µM, first compound 0.0316 µM
[24] = second compound 0.316 µM, first compound 0.1 µM
[25] = second compound 0.316 µM, first compound 0.316 µM
[26] = second compound 0.316 µM, first compound 1 µM
[27] = second compound 1 µM, first compound 0.0316 µM
[28] = second compound 1 µM, first compound 0.1 µM
[29] = second compound 1 µM, first compound 0.316 µM
[30] = second compound 1 µM, first compound 1 µM
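Note: spheroids exposed to the agents for seven days before the readout.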

## Nc1ccn(C2OC(CO)C(O)C2(F)F)c(=O)n1 (stereo unspecified) + C=CC(=O)N1CCN(c2nc(OCC3CCCN3C)nc3c(F)c(-c4nc(N)cc(C)c4C(F)(F)F)c(Cl)cc23)C(C)C1
[1]
  IC50: 126 nM
[2]
  IC50: 61.8 nM
[3]
  IC50: 84.6 nM
[4]
  IC50: 47.2 nM
[5]
  IC50: 93.4 nM
[6]
  IC50: 90.3 nM
Second compound 0.00316 µM, first compound 0.00316 µM
  viability, T/C: 86.5%
Second compound 0.00316 µM, first compound 0.01 µM
  viability, T/C: 82.4%
[7]
  viability, T/C: 61.8%
[8]
  viability, T/C: 56%
[9]
  viability, T/C: 38.7%
[10]
  viability, T/C: 32%
Second compound 0.01 µM, first compound 0.00316 µM
  viability, T/C: 107%
Second compound 0.01 µM, first compound 0.01 µM
  viability, T/C: 78.3%
[11]
  viability, T/C: 54%
[12]
  viability, T/C: 45.9%
[13]
  viability, T/C: 41.2%
[14]
  viability, T/C: 29.7%
Second compound 0.0316 µM, first compound 0.00316 µM
  viability, T/C: 80.3%
Second compound 0.0316 µM, first compound 0.01 µM
  viability, T/C: 79.8%
[15]
  viability, T/C: 67.8%
[16]
  viability, T/C: 46.6%
[17]
  viability, T/C: 38.2%
[18]
  viability, T/C: 33.8%
Second compound 0.1 µM, first compound 0.00316 µM
  viability, T/C: 84.3%
Second compound 0.1 µM, first compound 0.01 µM
  viability, T/C: 77.3%
[19]
  viability, T/C: 55.7%
[20]
  viability, T/C: 38.2%
[21]
  viability, T/C: 40.1%
[22]
  viability, T/C: 30.5%
Second compound 0.316 µM, first compound 0.00316 µM
  viability, T/C: 94.6%
Second compound 0.316 µM, first compound 0.01 µM
  viability, T/C: 80.4%
[23]
  viability, T/C: 59.9%
[24]
  viability, T/C: 48.2%
[25]
  viability, T/C: 42.2%
[26]
  viability, T/C: 29.8%
Second compound 1 µM, first compound 0.00316 µM
  viability, T/C: 89.5%
Second compound 1 µM, first compound 0.01 µM
  viability, T/C: 81.4%
[27]
  viability, T/C: 60.6%
[28]
  viability, T/C: 48.9%
[29]
  viability, T/C: 42.2%
[30]
  viability, T/C: 33.7%

## CC1(C)CCC(Nc2ncc(C(F)(F)F)c(-c3c[nH]c4c(P(C)(C)=O)c(C#N)ccc34)n2)CN1 (stereo unspecified)
Compound 0.000949 µM
  viability, T/C: 87.8% [middle of 4 runs]
Compound 0.003 µM
  viability, T/C: 75.3% [middle of 4 runs]
Compound 0.00949 µM
  viability, T/C: 72% [middle of 4 runs]
Compound 0.03 µM
  viability, T/C: 71.6% [middle of 4 runs]
Compound 0.0949 µM
  viability, T/C: 71.7% [middle of 4 runs]
Compound 0.3 µM
  viability, T/C: 61.9% [middle of 4 runs]
Curve of compound
  IC50: > 300 nM

## CC(=O)OC12COC1CC(O)C1(C)C(=O)C(O)C3=C(C)C(OC(=O)C(O)C(NC(=O)OC(C)(C)C)c4ccccc4)CC(O)(C(OC(=O)c4ccccc4)C21)C3(C)C (stereo unspecified) + C=CC(=O)N1CCN(c2nc(OCC3CCCN3C)nc3c(F)c(-c4nc(N)cc(C)c4C(F)(F)F)c(Cl)cc23)C(C)C1
[1]
  IC50: > 10000 nM
[2]
  IC50: > 10000 nM
[3]
  IC50: > 10000 nM
[4]
  IC50: > 10000 nM
[5]
  IC50: > 10000 nM
[6]
  IC50: > 10000 nM
[7]
  viability, T/C: 56.6%
[8]
  viability, T/C: 48.1%
[9]
  viability, T/C: 56%
[10]
  viability, T/C: 58.8%
Second compound 0.00316 µM, first compound 3.16 µM
  viability, T/C: 61.7%
Second compound 0.00316 µM, first compound 10 µM
  viability, T/C: 68%
[11]
  viability, T/C: 63.7%
[12]
  viability, T/C: 54.2%
[13]
  viability, T/C: 57.9%
[14]
  viability, T/C: 67.5%
Second compound 0.01 µM, first compound 3.16 µM
  viability, T/C: 62.6%
Second compound 0.01 µM, first compound 10 µM
  viability, T/C: 76%
[15]
  viability, T/C: 58.4%
[16]
  viability, T/C: 59.2%
[17]
  viability, T/C: 49.2%
[18]
  viability, T/C: 58.7%
Second compound 0.0316 µM, first compound 3.16 µM
  viability, T/C: 73.4%
Second compound 0.0316 µM, first compound 10 µM
  viability, T/C: 66.5%
[19]
  viability, T/C: 59.5%
[20]
  viability, T/C: 57.2%
[21]
  viability, T/C: 53.7%
[22]
  viability, T/C: 56.2%
Second compound 0.1 µM, first compound 3.16 µM
  viability, T/C: 72.5%
Second compound 0.1 µM, first compound 10 µM
  viability, T/C: 93.3%
[23]
  viability, T/C: 55.7%
[24]
  viability, T/C: 61.3%
[25]
  viability, T/C: 54.5%
[26]
  viability, T/C: 63.5%
Second compound 0.316 µM, first compound 3.16 µM
  viability, T/C: 79.8%
Second compound 0.316 µM, first compound 10 µM
  viability, T/C: 84.1%
[27]
  viability, T/C: 53%
[28]
  viability, T/C: 57.5%
[29]
  viability, T/C: 62.3%
[30]
  viability, T/C: 60.3%
Second compound 1 µM, first compound 3.16 µM
  viability, T/C: 62.9%
Second compound 1 µM, first compound 10 µM
  viability, T/C: 82.4%
